How the values were obtained:
Sinapis alba = assay: herbicidal action, post-emergence method, in a greenhouse; assay type: in vivo, Sinapis alba (white mustard); conditions: Sin. alba, 3 kg/ha of active ingredient (footnote +), 0 = no damage, 100 = complete destruction
Description: (§1) A range of crop plants and of unwanted plants are treated in a greenhouse. The test plants, segregated according to species, are grown in plastic pots. When they have grown to from 2 to 15 cm, depending on the age and the habit of the species, emulsions of the end product I prepared in Example 10 are applied to the leaves by means of jets which produce a fine spray (post-emergence treatment). Water (300 liters per hectare) serves as the vehicle and dispersing medium. […] The results are rated on a scale of from 0 to 100, with O = no damage and 100 = complete destruction.

Sesbania exaltata = assay: as above; assay type: in vivo, Sesbania exaltata (hemp sesbania (coffeeweed)); conditions: Sesb. exalt., 0 = no damage, 100 = complete destruction
Description: as §1

Glycine max = assay: as above; assay type: in vivo, Glycine max (soy beans); conditions: Glyc. max, 0 = no damage, 100 = complete destruction
Description: as §1

Sida spinosa = assay: as above; assay type: in vivo, Sida spinosa (teaweed (pricly sida)); conditions: Sida spin., 0 = no damage, 100 = complete destruction
Description: (§2) A range of crop plants and of unwanted plants are treated in a greenhouse. The test plants, segregated according to species, are grown in plastic pots. […] Water (300 liters per hectare) serves as the vehicle and dispersing medium. […] The results are rated on a scale of from 0 to 100, with O = no damage and 100 = complete destruction.

Ammannia coccinea = assay: as above; assay type: in vivo, Ammannia coccinea (redstem); conditions: Amm. cocc., 0 = no damage, 100 = complete destruction
Description: as §1

unwanted plants = assay: herbicidal action, post-emergence treatment in a greenhouse, unwanted plants; assay type: in vivo
Description: as §1

Oryza sativa = assay: herbicidal action, post-emergence method, in a greenhouse; assay type: in vivo, Oryza sativa (rice); conditions: Oryz. sat., 0 = no damage, 100 = complete destruction
Description: as §2

Amaranthus retroflexus = assay: as above; assay type: in vivo, Amaranthus retroflexus (pigweed); conditions: Amar. retr., 0 = no damage, 100 = complete destruction
Description: as §2

Avena sativa = assay: as above; assay type: in vivo, Avena sativa (oats); conditions: Avena sat., 3 kg/ha of active ingredient (footnote +), 0 = no damage, 100 = complete destruction
Description: as §1

Cyperus esculentus = assay: as above; assay type: in vivo, Cyperus esculentus (yellow nutsedge); conditions: Cyp. esc., 0 = no damage, 100 = complete destruction
Description: as §2

Ludwigia spp. = assay: as above; assay type: in vivo; conditions: Ludw. spp., 0 = no damage, 100 = complete destruction
Description: as §2

crop plants = assay: herbicidal action, post-emergence treatment in a greenhouse, crop plants; assay type: in vivo; conditions: after one week
Description: as §1

Ipomoea spp. = assay: herbicidal action, post-emergence method, in a greenhouse; assay type: in vivo, Ipomoea spp. (morning glory); conditions: Ipom. spp., 0 = no damage, 100 = complete destruction
Description: as §2

## CCN(COC)S(=O)(=O)N1c2ccccc2C(=O)N(C(C)C)S1(=O)=O [Example 10, 3-isopropyl-1-N'-methoxymethyl-N'-ethylsulfamoyl-2,1,3-benzothiadiazin-4-one-2,2-dioxide]
Sinapis alba
  % damage: 100%
Sesbania exaltata; 2.0 kg/ha of active ingredient
  % damage: 50%
Sesbania exaltata; 4.0 kg/ha of active ingredient
  % damage: 60%
Glycine max; 2.0 kg/ha of active ingredient
  % damage: 5%
Glycine max; 4.0 kg/ha of active ingredient
  % damage: 15%
Sida spinosa; 2.0 kg/ha of active ingredient
  % damage: 95%
Sida spinosa; 4.0 kg/ha of active ingredient
  % damage: 95%
Ammannia coccinea; 2.0 kg/ha of active ingredient
  % damage: 50%
Ammannia coccinea; 4.0 kg/ha of active ingredient
  % damage: 60%
Unwanted plants
  onset of action (in words): The action sets in rapidly
Unwanted plants; after one week
  damage to unwanted plants (in words): dying
Oryza sativa; 2.0 kg/ha of active ingredient
  % damage: 0%
Oryza sativa; 4.0 kg/ha of active ingredient
  % damage: 0%
Amaranthus retroflexus; 2.0 kg/ha of active ingredient
  % damage: 60%
Amaranthus retroflexus; 4.0 kg/ha of active ingredient
  % damage: 60%
Avena sativa
  % damage: 0%
Cyperus esculentus; 2.0 kg/ha of active ingredient
  % damage: 60%
Cyperus esculentus; 4.0 kg/ha of active ingredient
  % damage: 70%
Ludwigia spp.; 2.0 kg/ha of active ingredient
  % damage: 50%
Ludwigia spp.; 4.0 kg/ha of active ingredient
  % damage: 75%
Crop plants
  damage to crop plants (in words): very little or no attach
Ipomoea spp.; 2.0 kg/ha of active ingredient
  % damage: 50%
Ipomoea spp.; 4.0 kg/ha of active ingredient
  % damage: 90%

— US4131620A, “Sulfamic acid halides and their manufacture” (BASF Aktiengesellschaft, priority 1976, dated 1978)
